In a melting point compilation (Tetko et al.; mined from patent text by program, amines drawn as free bases though some values may be those of a salt) one finds melting point data, which are given here for 90 compounds.

Some results are limits rather than exact numbers.

A word on the melting point: it is the temperature, or range, at which the solid turns liquid.

On to `Cc1cc(C2CCN(S(=O)(=O)C3(C(=O)NO)CCN(C(=O)OC(C)(C)C)CC3)CC2)ccc1-c1cccc(OCCO)n1`, for which the melting point is 180 to 181 °C. As for `NC1=NS(=O)N=C1NCCCOc1cccc2c(=O)[nH]ccc12` (stereo not given), the figure is 235 °C; as for `CC1(C)Oc2ccc(S(=O)(=O)C(F)(F)F)cc2[C@@H](N2Cc3ccc([N+](=O)[O-])cc3C2=O)[C@@H]1O` (relative stereo), 264 to 266 °C; as for `O=C(O)c1cc(F)c(N(CCO)CCO)c(F)c1`, 146 to 150 °C. The result for `CC(C)COc1nc(N)c2ncn(C3C=CCCC3)c2n1` (stereo not given) reads 132 to 135 °C; that for `COC(=O)c1nc(CI)n(-c2ccc(Cl)cc2C(=O)c2ccccc2)n1`, 139 to 142 °C; that for `CCCCc1cn2nc3c(c(=O)n(CCC)c(=O)n3Cc3ccccc3)c2n1C`, 139 to 140 °C. On to `COC(=O)c1cccc2c(Br)c(OC)ccc12`, for which the melting point was determined as 119 °C. As for `CC(O)Cc1cc(N)cc([N+](=O)[O-])c1N` (stereo not given), the figure is 115 °C; as for `OCC(F)(F)c1ccccn1`, 58 to 60 °C; as for `O=C(Nc1nc(C(F)(F)C(F)(F)F)c(CF)s1)c1cc(C(F)(F)F)cc(C(F)(F)F)c1`, 133 to 134 °C. The compound `CC(C)(CF)C(O)(COc1ccc(F)cc1)Cn1cncn1` (stereo not given) returned a melting point of 97 to 99 °C. Regarding `CN(O)C(=O)Nc1ccc(S(C)=O)cc1` (stereo not given), the melting point worked out at 198 °C.

Take `CCOC(=O)c1[nH]c(I)c(C)c1CC`: the melting point lay in the range of 122 to 124 °C. The result for `CCOC(=O)c1cnn(-c2ccccn2)c1S(=O)(=O)NC(=O)Nc1nc(OC)cc(OC)n1` reads 140 to 142 °C. In turn, `NS(=O)(=O)c1cc(C(=O)O)cc(SCC(Br)CBr)c1Cc1ccccc1` (stereo not given) displayed a melting point of 205 to 207 °C.

Compound `CN(CCCOc1ccc(C=C2SC(=O)NC2=O)cc1)c1nc2ccccc2o1` had a melting point of 202 to 204 °C. The result for `O=C(CCCl)c1ccc2c(c1)Cc1cc(C(=O)CCCl)ccc1S2` reads 105 to 107 °C; that for `O=C(C[C@@H](O)C(F)(F)F)N[C@H]1CC[C@H](CCN2CCC(c3cccc4c3CCO4)CC2)CC1`, 189 °C; that for `COC(=O)/C=C/c1ccc(N(C)C(C)=O)nc1`, 94.3 °C.

Regarding `CCOc1ccnc(C(C)NC(=O)Nc2ccc(Br)cn2)c1F` (stereo not given), the melting point lay in the range of 143 to 145 °C.

Turning to `NC(=O)N(O)CCOCc1ccco1`, the melting point lay within 72 to 75 °C.

In turn, `CC12CCC3c4ccc(O)cc4CCC3C1CC=C2c1cccnc1` (stereo not given) came in with a melting point of 256 to 258 °C. As for `C[C@H]1N=C(c2ccccc2F)c2cc(N)ccc2N(C)C1=O`, the figure is 224 to 226 °C; as for `CC1(C)CC(=O)c2c(C(=O)Nc3ccsc3)c[nH]c2C1`, 217 to 218 °C. As for `CC(C)c1ccc(-c2nccc(-c3ccc(C(=O)O)cc3)n2)cc1`, the figure is 262 to 264 °C; as for `NC(=S)NCc1ccco1`, 80 to 91 °C. The result for `Oc1ccc2nc(-c3ccc(O)c4ccccc34)oc2c1` reads 194 to 196 °C. As to `CC(C)(C)c1cc(CN2CCN(c3ccc(N)cc3)CC2)cc(C(C)(C)C)c1O`, the melting point was 152 to 154 °C.

`CCCCC(=N)NC(=O)Nc1cccc(Cl)c1` gave a melting point of 135 to 137 °C. The result for `O=C(CC12CC3CC(CC(C3)C1)C2)Nc1ccc2cn[nH]c2c1` reads 245 °C.

`CNc1nc(Nc2ccc(CCNC(=O)OC(C)(C)C)cc2)ncc1[N+](=O)[O-]` had a melting point of 70 to 71 °C. Compound `N#CN=C(Nc1cccnc1)NC(NC(=O)c1ccc(Cl)cc1)C1CC1` (stereo not given) displayed a melting point of 137 to 139 °C. The result for `CC1=C(/C=C/C(C)=C/C=C/C(C)=C/C(=O)OCOC(=O)Oc2ccc([N+](=O)[O-])cc2)C(C)(C)CCC1` reads 35 to 36 °C; that for `CSc1nccn1N=Cc1ccccc1`, 95 to 97 °C. As for `COC(=O)c1ccc2c(c1C(=O)OC)C(=O)OC2=O`, the figure is 178 to 180 °C; as for `COc1cc(-n2nc(Cl)cc2-c2ccc(S(C)(=O)=O)cc2)ccc1[N+](=O)[O-]`, 170 to 175 °C.

The compound `NCC(=O)Nc1ccc(S(=O)(=O)c2cccc(Cl)c2)cc1` returned a melting point of 195 to 196 °C.

In the case of `COc1ccc2cc(C(=O)C(C)OS(=O)(=O)c3ccc(C)cc3)ccc2c1` (stereo not given), the melting point lay in the range of 85 to 87 °C.

Turning to `Cc1ccc(-c2cccc(/C=C/C(=O)Nc3ccc(Cn4ccnc4)cc3)c2)cc1`, the melting point fell in the range of 198 to 200 °C.

`O=C(O)CCCc1ccc(-c2ccc(F)cc2Cl)cc1` returned a melting point of 81 to 82 °C.

As to `O=C(O)c1ccc(SC(Cn2ccnc2)c2ccccc2O)cc1` (stereo not given), the melting point is 186 to 190 °C. As for `CN1CCC(c2c[nH]c3ccc(OCc4ccccc4)cc23)CC1`, the figure is 163 to 164 °C; as for `COc1ccc(-c2ccc3nn(-c4cc(C(C)(C)CC(C)(C)C)cc(C(C)(C)c5ccccc5)c4O)nc3c2)cc1`, 129 to 131 °C.

The compound `Cc1ccc(-c2[nH]c(-c3cccc4ccccc34)nc2C(=O)Nc2nccs2)cc1` gave a melting point of 228 to 229 °C. Compound `CCC1(CC)C(=O)N(C(C)(C)C)CC(C)(C)N1C(C)c1ccc(OC(C)=O)cc1` (stereo not given) came in with a melting point of 92 to 96 °C.

Consider `NC(=NO)c1c(C(F)(F)F)ccc(F)c1F`, for which the melting point lay within 114 to 115 °C. As for `CN(C)c1nc(N)nc(-c2cc(Cl)ccc2Cl)n1`, the figure is 178 to 179 °C. As for `COc1cc(OC)nc(Oc2ccc3[nH]c(C)cc3c2C(=O)OCc2ccccc2)n1`, the figure is 135 to 139 °C; as for `CC(C#N)(Cn1c(C(F)(F)F)nc2ccccc21)NC(=O)c1ccc(OC(F)(F)F)cc1` (stereo not given), 194 °C; as for `COC(=O)c1cncnc1NCc1ccncc1`, 111 to 112 °C.

Take `O=C(Nc1ccc(F)c(C(F)(F)F)c1)N1COc2cc(O)ccc21`: the melting point lay in the range of 171 to 172 °C. As for `CCCn1c(=O)c2[nH]c(-c3ccc4c(c3)OCCO4)nc2n(Cc2ccccc2)c1=O`, the figure is 290 °C. As for `O=C=Nc1ccc(OCCOc2ccc(N=C=O)cc2)cc1`, the figure is 95 to 97 °C; as for `CC(=O)c1ccc(-c2ccc(CC(C)O)cc2)cc1` (single isomer, unassigned; (-)), 139 to 140 °C. As for `c1ccc(Cc2c[nH]c(-c3ncc[nH]3)n2)cc1`, the melting point lay in the range of 138 to 140 °C.

Consider `COc1ccc2c(c1)CCC1CCNC(=O)C(CC3(C)OCCO3)=C21` (stereo not given), for which the melting point is 192 to 194 °C.

Turning to `N=C(NNC(=O)c1ccccc1)C(Cl)(Cl)Cl`, the melting point was 170 to 172 °C. The result for `Cc1ccc2oc(NC(CN3CCN(Cc4ccc(Cl)c(Cl)c4)CC3)C(C)C)nc2c1` (stereo not given) reads 155 to 157 °C; that for `COc1ccc2c(c1)C(=O)c1ccc(-c3nnn[nH]3)cc1S2(=O)=O`, 253 °C; that for `Nc1ccc(C(=O)C[N+](=O)[O-])c(Cl)c1`, 131 to 133 °C. In the case of `CC1=CC(O)C(OC(=O)c2ccco2)C(C)(C)CC1=O` (stereo not given), the melting point is 102 to 104 °C. The result for `CC(CCOc1cccc(=O)n1O)CC(C)(C)C` (stereo not given) reads 130 to 131 °C; that for `Nc1cc(C2=NOC(c3cc(Cl)cc(Cl)c3)(C(F)(F)F)C2)ccc1-n1cncn1` (stereo not given), 244 to 246 °C.

`CNc1nc(C(C)c2ccc(-c3ccc(F)cc3)c(F)c2)c(C(=O)O)s1` (stereo not given) yielded a melting point of 195 to 196 °C. As for `c1cnc2c(c1)-c1ncccc1C2(Cc1ccncc1)Cc1ccncc1`, the figure is 133 to 137 °C; as for `N#CC1(CCNC(=O)C(Cl)Cl)CCCCC1`, 109 to 114 °C; as for `CCn1c(=O)c(-c2c(Cl)cccc2Cl)cc2cnc(N)nc21`, 207 to 209 °C.

For the compound `Cc1cc(C(=O)CBr)cc(C)c1O`, the melting point lay within 128 to 131 °C. In turn, `CC1(C)C(=O)Nc2cc3[nH]c(NC(=O)c4ccncc4)nc3cc21` had a melting point above 300 °C.

As to `Cc1cc(=O)c(Oc2ccccc2C)c(-c2ccc(S(C)(=O)=O)cc2)o1`, the melting point was 168 °C. The result for `O=C1c2ccccc2C(=O)N1CCCCc1nccc(NC(=S)NCC(F)(F)F)n1` reads 204 to 205 °C; that for `Cn1nc(O)c(Cl)c1Cl`, 212 to 216 °C; that for `CC(C)(C)c1ccc(C(O)CCCN2CCC(C(O)(c3ccccc3)c3ccc(C(C)(C)C)cc3)CC2)cc1` (stereo not given), 179 to 182 °C. In turn, `N#CCCNC1(CC2CCCCC2)C(=O)Nc2ccc(Cl)cc21` (stereo not given) yielded a melting point of 208 °C. In turn, `CCOC(=O)C1=C(C)Nc2nc(N)nc(N)c2C1c1ccc(Cl)c(Cl)c1` (stereo not given) gave a melting point of 244 °C. Consider `COc1ccc(S(=O)(=O)Nc2ccc(C)cc2)c2c3ccccc3n(C=O)c12`, for which the melting point fell in the range of 193 to 199 °C. Regarding `CCN=C(N)N(CC)N=C(C=Cc1ccc(OC(F)F)cc1)C=Cc1ccc(OC(F)F)cc1`, the melting point was in the range of 97 to 99 °C. The result for `CN(C)C(=O)CCC(=O)c1ccccc1` reads 56 to 58 °C. As for `O=C1NCCC[C@@H]1NS(=O)(=O)c1ccccc1F`, the figure is 180 to 183 °C; as for `CNC(Cc1ccccc1NC(=O)C(C)(C)C)c1ccsc1` (stereo not given), 81 to 84 °C. As for `c1cnc2ccc(Cn3nnc4ccc(-c5cn[nH]c5)nc43)cc2c1`, the figure is 215 to 218 °C; as for `CN1CC(C(=O)N(C)CCCc2ccc(Cl)c(Cl)c2)=C(O)C1=O`, 138 to 140 °C; as for `C=CCc1c(O)ccc2c(=O)cc(C(=O)OCC)oc12`, 164 to 165 °C.

`COc1ccc(-c2cc(=Nc3c(C)cc(C)cc3C)n(C)c(N3CC=CCC3)n2)cc1OC`: the melting point is 161 to 163 °C. Consider `CC(C)(C)OC(=O)NCCNC(=O)c1ccc(Br)cn1`, for which the melting point was 118 °C. The result for `O=Cc1cccc2c1CN(c1ccccc1)C2` reads 120 to 122 °C; that for `CN1CCC(OC(c2cccc(O)c2)c2nc3ccccc3s2)CC1` (stereo not given), 201 °C. As for `CCOC(=O)c1cc2ccnc(N(Cc3ccccc3)Cc3ccccc3)c2[nH]1`, the figure is 120 to 123 °C; as for `CCOc1ccc2c(c1)n(C(C)(C)CC(C)(C)C)c(=O)n2S(=O)(=O)c1ccc([N+](=O)[O-])cc1OC`, 158 °C.
